# Test results from EPA's ToxValDB 9.5 (doi:10.2903/j.efsa.2009.333r).
# Legend:
# Colinus virginianus = details: for LD50: acute, oral, mortality
# Aphidius rhopalosiphi = experiment: LR50; higher = less toxic; details: acute; duration: 48 hours; mortality
# Daphnia magna = details: chronic/long-term; duration: 21 days; reproduction
# Gasterosteus aculeatus = details: acute; duration: 96 hours; mortality
# Oncorhynchus mykiss = details: chronic/long-term; duration: 97 days; growth
# Homo sapiens = details: clinical; oral; M/F; clinical chemistry
# Tagia sp. = details: acute; duration: 14 days; mortality
# Rattus norvegicus = details: for NOAEL: clinical chemistry
# Oryctolagus sp. = details: developmental; development
# Apis mellifera = details: acute; duration: 48 hours; dermal; mortality
Structure (SMILES),LD50 (Colinus virginianus; diet),LD50 (Colinus virginianus) [mg/kg],LR50 (Aphidius rhopalosiphi) [g/ha],NOEC (Daphnia magna) [mg/L],NOEC (Colinus virginianus; reproduction developmental) [mg/kg-day],LC50 (Gasterosteus aculeatus) [µg/mL],NOEC (Oncorhynchus mykiss) [mg/L],NOAEL (Homo sapiens) [mg/kg-day],LC50 (Tagia sp.) [mg/kg],"LD50 (Rattus norvegicus; acute, oral, F, mortality) [mg/kg]","NOAEL (Rattus norvegicus; chronic, duration: 2 years) [mg/kg-day]","NOAEL (Rattus norvegicus; subchronic, duration: 90 days, oral) [mg/kg-day]",NOAEL (Oryctolagus sp.) [mg/kg-day],LD50 (Apis mellifera) [µg/piece]
CCOC(=O)CC(SP(=O)(OC)OC)C(=O)OCC (stereo unspecified) [Malaoxon],334 mg/kg,43,–,–,–,–,–,–,–,–,–,–,–,–
CCOC(=O)CC(SP(=S)(OC)OC)C(=O)OCC (stereo unspecified) [Malathion],554 mg/kg-day,359,0.0612,6e-05,13.5,0.022,0.021,> 15,613,1780,29,34.4,25,0.16
